The text below walks through data of patent US10836764B2, “5-HT2C receptor agonists and compositions and methods of use” (Arena Pharmaceuticals, Inc., priority 2016, dated 2020).

Read-outs that look alike come from different tables or passages of the source.

Data set [1] is described as follows: Food intake in the male Sprague Dawley rat. The class given is in vivo. The conditions noted are these: PO 1, 2 or 5 mg/kg, 1 hour following administration, relative to placebo. As for the experimental part: Male Sprague Dawley rats (225-300 g) were housed three per cage in a temperature and humidity controlled environment (12 h:12 h light:dark cycle, lights on at 0600 h). At 1600 h on the day before the test, rats were placed in fresh cages and food was removed. On test day, rats were placed into individual cages with grid floors at 1000 h with no access to food. At 1130 h, rats (n=8) were administered either vehicle (20% hydroxypropyl-β-cyclodextrin) or test compound via oral gavage (PO, 1 mL/kg, with an amount of 1 mg/kg, 2 mg/kg or 5 mg/kg of test compound) 30 min prior to food presentation. Food intake was measured at 60 min after drug administration (30 min after food presentation).

In data set [2] the target is T1, 5-HT2C receptor (Homo sapiens (Human), UniProt P28335). The data set can be described thus: DOI radioligand binding assay, 5-HT2C. As for the experimental part:
(§1) For the compounds of Table A, the following procedure was used. HEK293 cells stably expressing recombinant 5-HT2 receptors were harvested, suspended in ice-cold phosphate buffered saline, pH 7.4 (PBS), and then centrifuged at 48,000 g for 20 min at 4° C. The resulting cell pellet was then re-suspended in wash buffer containing 20 mM HEPES, pH 7.4 and 0.1 mM EDTA, homogenized on ice using a Brinkman Polytron, and centrifuged (48,000 g for 20 min at 4° C.). The pellet was then resuspended in 20 mM HEPES, pH 7.4, homogenized on ice, and centrifuged (48,000 g for 20 min at 4° C.). Crude membrane pellets were stored at −80° C. until used for radioligand binding assays.
(§2) For the compounds of Table A, the following procedure was used. […] Experiments comprised addition of 95 μL of assay buffer (20 mM HEPES, pH 7.4, 10 mM MgCl2), 50 μL of membranes, 50 μL of radioligand stock, and 5 μL of test compound diluted in assay buffer to 96-well microtiter plates, which were then incubated for 1 h at room temperature. Assay incubations were terminated by rapid filtration through PerkinElmer F/C filtration plates under reduced pressure using a 96-well Packard filtration apparatus, followed by washing three times with ice cold assay buffer. Plates were then dried at 45° C. for a minimum of 2 h. Finally, 25 μL of BetaScint™ scintillation cocktail was added to each well and the plates were counted in a Packard TopCount® scintillation counter. In each competition study, test compounds were dosed at ten concentrations with triplicate determinations at each test concentration.

The target of the next data set is 5-HT2A receptor (Homo sapiens (Human), UniProt P28223). The data set can be described thus: DOI radioligand binding assay, 5-HT2A. The conditions noted are these: [125I]DOI competition, HEK293 cell membranes; read-out: DOI Binding 5HT2A. The procedure: as §1, §2
Chain of 5-HT2A receptor (P28223 whole entry): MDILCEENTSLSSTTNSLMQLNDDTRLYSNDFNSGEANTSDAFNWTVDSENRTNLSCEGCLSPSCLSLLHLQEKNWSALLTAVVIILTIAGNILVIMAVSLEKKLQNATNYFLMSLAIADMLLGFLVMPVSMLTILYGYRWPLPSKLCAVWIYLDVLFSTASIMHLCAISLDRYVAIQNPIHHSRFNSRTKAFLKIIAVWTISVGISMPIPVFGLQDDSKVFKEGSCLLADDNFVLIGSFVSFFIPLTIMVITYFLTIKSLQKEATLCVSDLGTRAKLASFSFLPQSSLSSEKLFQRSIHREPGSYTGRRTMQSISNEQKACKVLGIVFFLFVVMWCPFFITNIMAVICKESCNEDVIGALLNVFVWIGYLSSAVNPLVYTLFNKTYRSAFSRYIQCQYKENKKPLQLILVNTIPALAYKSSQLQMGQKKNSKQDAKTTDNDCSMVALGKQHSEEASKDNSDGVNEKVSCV
The target of data set [3] is T2, 5-HT2B receptor (Homo sapiens (Human), UniProt P41595). Put plainly: DOI radioligand binding assay, 5-HT2B. To be noted: [125I]DOI competition, HEK293 cell membranes. The procedure:
as §1, §2

For data set [4], the target named is T2, 5-HT2B receptor. Put plainly: IP accumulation assay, 5-HT2B. In kind it is cell-based. The procedure: (§3) HEK293 cells expressing recombinant 5-HT2 receptors were added to sterile poly-D-lysine-coated 96-well microtiter plates (35,000 cells/well) and labeled with 0.6 μCi/well of [^3H]inositol in myoinositol-free DMEM for 18 h. Unincorporated [^3H]inositol was removed by aspiration and replaced with fresh myoinositol-free DMEM supplemented with LiCl (10 mM final) and pargyline (10 μM final). Serially diluted test compounds were then added and incubation was conducted for 2 h at 37° C. (5-HT2B, and 5-HT2A) and RT (5-HT2C). Incubations were then terminated by lysing cells with the addition of ice-cold 0.1 M formic acid followed by freezing at −80° C. After thawing, total [^3H]inositol phosphates were resolved from [^3H]inositol using AG1-X8 ion exchange resin (Bio-Rad) and [^3H]inositol phosphates were measured by scintillation counting using a Perkin Elmer TopCount® scintillation counter. All EC50 determinations were performed using 10 different concentrations and triplicate determinations were made at each test concentration.

In data set [5] the target is T1, 5-HT2C receptor. The data set can be described thus: IP accumulation assay, 5-HT2C. The class given is cell-based. The procedure: as §3
For data set [6] the following is noted: add on treatment, non-depressed patients with poorly controlled epilepsy; cited from earlier work.
The conditions of data set [7]: 10 mg BID, type 2 diabetes; cited from earlier work.
The conditions of data set [8]: patients without diabetes, cited from earlier work.
The conditions of data set [9]: cited from earlier work.
The conditions of data set [10]: cited from earlier work. This is another data set of the same source.
Setting [11] is: patients with type 2 diabetes, BID.
Where [12] appears, read: patients without type 2 diabetes.
Where [13] appears, read: pivotal phase 3 program, up to two years.

T2 sequence (P41595 whole entry): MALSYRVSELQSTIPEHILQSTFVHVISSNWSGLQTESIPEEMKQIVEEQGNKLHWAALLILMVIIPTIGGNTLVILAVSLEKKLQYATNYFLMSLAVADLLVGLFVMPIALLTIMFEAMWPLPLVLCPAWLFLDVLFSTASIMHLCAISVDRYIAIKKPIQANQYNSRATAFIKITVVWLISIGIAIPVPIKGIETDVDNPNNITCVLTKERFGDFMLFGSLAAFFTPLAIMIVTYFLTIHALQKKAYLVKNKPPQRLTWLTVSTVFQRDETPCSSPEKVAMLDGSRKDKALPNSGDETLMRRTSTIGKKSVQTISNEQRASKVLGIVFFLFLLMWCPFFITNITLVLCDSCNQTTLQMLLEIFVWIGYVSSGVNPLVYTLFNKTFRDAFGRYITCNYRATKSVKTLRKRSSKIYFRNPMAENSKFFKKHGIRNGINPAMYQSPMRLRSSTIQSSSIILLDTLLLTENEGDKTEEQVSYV
T1 sequence (P28335 33-458): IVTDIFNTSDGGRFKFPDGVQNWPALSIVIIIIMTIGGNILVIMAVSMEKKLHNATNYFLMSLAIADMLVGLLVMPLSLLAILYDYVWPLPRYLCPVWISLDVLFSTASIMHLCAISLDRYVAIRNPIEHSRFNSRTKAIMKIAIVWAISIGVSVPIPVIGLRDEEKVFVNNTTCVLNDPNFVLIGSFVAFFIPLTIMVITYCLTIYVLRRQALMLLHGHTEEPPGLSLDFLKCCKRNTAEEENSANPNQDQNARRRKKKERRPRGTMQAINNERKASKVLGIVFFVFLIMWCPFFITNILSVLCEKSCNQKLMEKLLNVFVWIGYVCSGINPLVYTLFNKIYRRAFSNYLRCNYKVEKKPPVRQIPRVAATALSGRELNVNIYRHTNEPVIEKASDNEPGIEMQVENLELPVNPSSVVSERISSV

In the case of `FC(F)(F)CCc1ccnc2c1CC[C@@H]1CNCCN21` [Compound 152, (R)-4-(3,3,3-trifluoropropyl)-6,6a,7,8,9,10-hexahydro-5H-pyrazino[1,2-a][1,8]naphthyridine], the cumulative food intake result in [1] is given as “significantly decreased”.

With `Clc1ccc(-c2ccnc3c2CC[C@@H]2CNCCN32)nc1` [Compound 146, (R)-4-(5-chloropyridin-2-yl)-6,6a,7,8,9,10-hexahydro-5H-pyrazino[1,2-a][1,8]naphthyridine], the Ki at 5-HT2C receptor [2] (read-out: DOI Binding 5HT2C) turned out to be 3110 nM; on 5-HT2A receptor it was 5390 nM; on 5-HT2B receptor [3], 1020 nM.

Turning to `CSc1nc(Cl)c2c(n1)N1CCCNC[C@H]1CC2` [Compound 159, (R)-4-chloro-2-(methylthio)-5,6,6a,7,8,9,10,11-octahydropyrimido[5′,4′:5,6]pyrido[1,2-a][1,4]diazepine], the Ki on 5-HT2C receptor [2] (read-out: DOI Binding 5HT2C) was 1600 nM; on 5-HT2A receptor it was 12300 nM; at 5-HT2B receptor [3], 272 nM.

On to `c1ccc(Cc2cncc3c2CC[C@@H]2CNCCN32)cc1` [Compound 175, (R)-4-benzyl-6,6a,7,8,9,10-hexahydro-5H-pyrazino[1,2-a][1,7]naphthyridine], for which the Ki on 5-HT2C receptor [2] stood at 0.52 nM; on 5-HT2B receptor [3] it was 270 nM. The EC50 (as a rule, the concentration giving half of the maximal effect) is 19900 nM at 5-HT2B receptor [4] and 0.622 nM at 5-HT2C receptor [5].

Regarding `CC(C)Cc1ccnc2c1CC[C@@H]1CNCCN21` [Compound 114, (R)-4-isobutyl-6,6a,7,8,9,10-hexahydro-5H-pyrazino[1,2-a][1,8]naphthyridine], the Ki was 0.587 nM on 5-HT2C receptor [2] and 33 nM on 5-HT2B receptor [3]. Further, the results for the EC50 on 5-HT2B receptor [4] and at 5-HT2C receptor [5] were 351 nM and 0.424 nM, respectively.

As for `CN(C)CCCC1(c2ccc(F)cc2)OCc2cc(C#N)ccc21` (centres unmarked) [citalopram], the “drop in median seizure frequency” value in data set [6] is listed as 55.6%.

`c1cc(COCC2CCOCC2)c2c(n1)N1CCNC[C@H]1CC2` [Compound 133, (R)-4-(((tetrahydro-2H-pyran-4-yl)methoxy)methyl)-6,6a,7,8,9,10-hexahydro-5H-pyrazino[1,2-a][1,8]naphthyridine]: the Ki at 5-HT2C receptor [2] (read-out: DOI Binding 5HT2C) worked out at 1250 nM; on 5-HT2A receptor it was 1670 nM; on 5-HT2B receptor [3] it was 844 nM.

In the case of `Clc1ncnc2c1CC[C@@H]1CNCCCN21` [Compound 160, (R)-4-chloro-5,6,6a,7,8,9,10,11-octahydropyrimido[5′,4′:5,6]pyrido[1,2-a][1,4]diazepine], the figures for the Ki at 5-HT2C receptor [2] (read-out: DOI Binding 5HT2C), on 5-HT2A receptor and on 5-HT2B receptor [3] were 5560 nM, 100000 nM and 1830 nM, respectively.

In the case of `C[C@H]1CNCCc2ccc(Cl)cc21` [lorcaserin, (R)-8-chloro-1-methyl-2,3,4,5-tetrahydro-1H-3-benzazepine], the “reduction in HbAlc” value in [7] is reported as 0.9%. Also, in data set [8] (one study), the HOMA-IR change is −0.4 and the fasting insulin change is listed as −3.3 μIU/mL. In data set [8], the “mean fasting glucose change” value was -0.2 mg/dL. In [9] (setting [11]), the “patients who decreased total daily dose of medications for dyslipidemia” value is 5.5% and the “patients who increased use of medications for dyslipidemia” value is recorded as 3.1%. In addition, in data set [9] (patients with type 2 diabetes), the “decrease in mean daily doses of sulfonylureas and thiazolidinediones” value is on record as 16-24%; the “patients who decreased total daily dose of antihypertensive medications” value is on record as 8.2%; the “patients who increased total daily dose of antihypertensive medications” value is given as 6.6%. Moreover, in data set [9] (setting [12]), the “patients who decreased total daily dose of antihypertensive medications” value is reported as 2.2%, the “patients who decreased total daily dose of medications for dyslipidemia” value was 1.3%, the “patients who increased total daily dose of antihypertensive medications” value is 2.2% and the “patients who increased use of medications for dyslipidemia” value was 2.6%. For the same molecule, the “risk of cardiac valvulopathy” value in data set [10] (phase 3 program) is on record as “did not increase”. In data set [10] (setting [13]), the “patients achieved at least 5% weight loss” value was “About two-thirds” and the “patients achieved at least 10% weight loss” value is on record as “over one-third”. Besides, the “average weight lost, of their weight” value in [10] (pivotal phase 3 program) is recorded as “about 8%”. Besides, in data set [10] (second phase 3 trial), the “average weight loss, top quartile of patients” value was 35 pounds and the “average weight loss, top quartile of patients, of body weight” value is recorded as 16%.
